# Where a name gives a salt, the structure may show the parent alone. Read-outs that look alike come from different tables or passages of the source.
# Tested on: GH3-TRE-Luc cell line
# Conditions: read-out: AC50 (uM) modified / 1000, viability, 1 nM T3 present, 24 h
smiles,measurement,setting,value
O=C1CN(/N=C/c2ccc(-c3ccc([N+](=O)[O-])cc3)o2)C(O)=N1 [Dantrolene sodium],CC50,Tox21_110001=Tox21_112013,11.2 µM
same,CC50,Tox21_110001=Tox21_301997,48.2 µM
COC(=O)[C@H]1[C@H]2C[C@@H]3c4[nH]c5ccccc5c4CCN3C[C@H]2C[C@@H](OC(=O)c2cc(OC)c(OC)c(OC)c2)[C@@H]1OC [Deserpidine],CC50,Tox21_110001=Tox21_112646,1.94 µM
same,CC50,Tox21_110001=Tox21_113102,27.7 µM
CCCCCCCCCC[N+](C)(C)CCCCCCCCCC [Didecyldimethylammonium bromide],CC50,Tox21_110001=Tox21_112302,6.15 µM
CCN(CC)C(=S)SSC(=S)N(CC)CC [Disulfiram],CC50,Tox21_110001=Tox21_110280,19.9 µM
same,CC50,Tox21_110001=Tox21_300403,0.0747 µM
same,CC50,Tox21_110001=Tox21_400072,81.5 µM
CCN1/C(=C/C=C/C=C/c2sc3ccccc3[n+]2CC)Sc2ccccc21 [Dithiazanine chloride],CC50,Tox21_110001=Tox21_113171,7.02 µM
CC(=O)O[C@@]12CO[C@@H]1C[C@H](O)[C@@]1(C)C(=O)[C@H](O)C3=C(C)[C@@H](OC(=O)[C@H](O)[C@@H](NC(=O)OC(C)(C)C)c4ccccc4)C[C@@](O)([C@@H](OC(=O)c4ccccc4)[C@H]21)C3(C)C [Docetaxel],CC50,Tox21_110001=Tox21_112781,0.0619 µM
same,CC50,Tox21_110001=Tox21_113088,0.364 µM
CCCCC(CC)COC(=O)CC(C(=O)OCC(CC)CCCC)S(=O)(=O)O (stereo not drawn) [Docusate sodium],CC50,Tox21_110001=Tox21_112087,34.4 µM
same,CC50,Tox21_110001=Tox21_113469,18.8 µM
same,CC50,Tox21_110001=Tox21_201342,64.9 µM
same,CC50,Tox21_110001=Tox21_300496,57.2 µM
CCCCCCCCCCCCN [Dodecylamine hydrochloride],CC50,Tox21_110001=Tox21_301702,19.6 µM
NCCc1ccc(O)c(O)c1 [Dopamine],CC50,Tox21_110001=Tox21_110167,37 µM
Clc1ccc(COC(Cn2ccnc2)c2ccc(Cl)cc2Cl)cc1 (stereo not drawn) [Econazole nitrate],CC50,Tox21_110001=Tox21_110852,13.9 µM
same,CC50,Tox21_110001=Tox21_200771,23.8 µM
same,CC50,Tox21_110001=Tox21_303391,29.6 µM
CC[C@H]1CN2CCc3cc(OC)c(OC)cc3[C@@H]2C[C@@H]1C[C@H]1NCCc2cc(OC)c(OC)cc21 [Emetine],CC50,Tox21_110001=Tox21_110901,0.0872 µM
O=C1OC2(c3ccccc31)c1cc(Br)c(O)c(Br)c1Oc1c2cc(Br)c(O)c1Br [Eosin],CC50,Tox21_110001=Tox21_112323,9.05 µM
same,CC50,Tox21_110001=Tox21_302152,8.28 µM
C[C@]12CC[C@@H]3c4ccc(O)cc4CC[C@H]3[C@@H]1CC[C@@H]2OC(=O)CCC1CCCC1 [Estradiol cypionate],CC50,Tox21_110001=Tox21_110003,32.5 µM
same,CC50,Tox21_110001=Tox21_112331,43.4 µM
same,CC50,Tox21_110001=Tox21_301818,86.1 µM
C=C(CC)C(=O)c1ccc(OCC(=O)O)c(Cl)c1Cl [Ethacrynic acid],CC50,Tox21_110001=Tox21_110335,27 µM
same,CC50,Tox21_110001=Tox21_201102,65.9 µM
CCOc1ccc2c(c1)C(C)=CC(C)(C)N2 [Ethoxyquin],CC50,Tox21_110001=Tox21_110388,39.8 µM
COc1cc([C@@H]2c3cc4c(cc3[C@@H](O[C@@H]3O[C@@H]5CO[C@@H](C)O[C@H]5[C@H](O)[C@H]3O)[C@H]3COC(=O)[C@H]23)OCO4)cc(OC)c1O [Etoposide],CC50,Tox21_110001=Tox21_110630,6.45 µM
same,CC50,Tox21_110001=Tox21_302201,2.85 µM
O=C1OC2(c3ccccc31)c1cc(I)c(O)c(I)c1Oc1c2cc(I)c(O)c1I [FD&C Red 3],CC50,Tox21_110001=Tox21_202932,18.4 µM
same,CC50,Tox21_110001=Tox21_302085,23.6 µM
COC(=O)Nc1nc2ccc(Sc3ccccc3)cc2[nH]1 [Fenbendazole],CC50,Tox21_110001=Tox21_110649,0.23 µM
same,CC50,Tox21_110001=Tox21_301828,1.53 µM
O=C(NCC1CCCCN1)c1cc(OCC(F)(F)F)ccc1OCC(F)(F)F (stereo not drawn) [Flecainide],CC50,Tox21_110001=Tox21_110151,36.6 µM
CNCCC(Oc1ccc(C(F)(F)F)cc1)c1ccccc1 (stereo not drawn) [Fluoxetine],CC50,Tox21_110001=Tox21_110144,8.3 µM
C[C@]12CC[C@@H]3c4ccc(O)cc4C[C@@H](CCCCCCCCC[S+]([O-])CCCC(F)(F)C(F)(F)F)[C@H]3[C@@H]1CC[C@@H]2O (stereo partly drawn) [Fulvestrant],CC50,Tox21_110001=Tox21_110939,0.00438 µM
same,CC50,Tox21_110001=Tox21_202604,0.00683 µM
same,CC50,Tox21_110001=Tox21_303656,2.26 µM
CO[C@@H]1[C@H](OC(=O)/C=C/C=C/C=C/C=C/C(=O)O)CC[C@]2(CO2)[C@H]1[C@@]1(C)O[C@@H]1CC=C(C)C [Fumagillin],CC50,Tox21_110001=Tox21_112066,42.9 µM
O=c1c(-c2ccc(O)cc2)coc2cc(O)cc(O)c12 [Genistein],CC50,Tox21_110001=Tox21_110161,24.6 µM
same,CC50,Tox21_110001=Tox21_201428,38.3 µM
same,CC50,Tox21_110001=Tox21_300585,57.7 µM
CN(C)c1ccc(C(=C2C=CC(=[N+](C)C)C=C2)c2ccc(N(C)C)cc2)cc1 [Gentian Violet],CC50,Tox21_110001=Tox21_111084,1.65 µM
same,CC50,Tox21_110001=Tox21_201762,0.893 µM
same,CC50,Tox21_110001=Tox21_300571,0.536 µM
O=C(O)CCCC(=O)O [Glutaric acid],CC50,Tox21_110001=Tox21_302871,35.4 µM
COc1cc2c(c(OC)c1OC)-c1c(cc3c(c1OC)OCO3)C[C@H](C)[C@](C)(O)C2 [Gomisin A],CC50,Tox21_110001=Tox21_113433,22.9 µM
O=C(CCCN1CCC(O)(c2ccc(Cl)cc2)CC1)c1ccc(F)cc1 [Haloperidol],CC50,Tox21_110001=Tox21_110162,20.6 µM
same,CC50,Tox21_110001=Tox21_300475,52.1 µM
CCCCCCCCCCCCCCCC[N+](C)(C)C [Hexadecyltrimethylammonium bromide],CC50,Tox21_110001=Tox21_112096,9.07 µM
same,CC50,Tox21_110001=Tox21_300853,11.7 µM
NNc1nncc2ccccc12 [Hydralazine hydrochloride],CC50,Tox21_110001=Tox21_302496,73.4 µM
